Assay results taken from patent US9464084B2, “P2X7 modulators” (Janssen Pharmaceutica NV, priority 2013, dated 2016).
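Note: PBMCs from donor human blood, with a further 1.5 h incubation of the cells in the assay.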

These compounds were tested against P2X7 (Homo sapiens (Human), UniProt Q99572) (assay: P2X7 antagonism in human PBMCs (LPS + Bz-ATP induced IL-1β release, ELISA)). Details: compound 1 μM, LPS 30 ng/ml, Bz-ATP 0.5 mM.
Chain of P2X7 (Q99572 whole entry): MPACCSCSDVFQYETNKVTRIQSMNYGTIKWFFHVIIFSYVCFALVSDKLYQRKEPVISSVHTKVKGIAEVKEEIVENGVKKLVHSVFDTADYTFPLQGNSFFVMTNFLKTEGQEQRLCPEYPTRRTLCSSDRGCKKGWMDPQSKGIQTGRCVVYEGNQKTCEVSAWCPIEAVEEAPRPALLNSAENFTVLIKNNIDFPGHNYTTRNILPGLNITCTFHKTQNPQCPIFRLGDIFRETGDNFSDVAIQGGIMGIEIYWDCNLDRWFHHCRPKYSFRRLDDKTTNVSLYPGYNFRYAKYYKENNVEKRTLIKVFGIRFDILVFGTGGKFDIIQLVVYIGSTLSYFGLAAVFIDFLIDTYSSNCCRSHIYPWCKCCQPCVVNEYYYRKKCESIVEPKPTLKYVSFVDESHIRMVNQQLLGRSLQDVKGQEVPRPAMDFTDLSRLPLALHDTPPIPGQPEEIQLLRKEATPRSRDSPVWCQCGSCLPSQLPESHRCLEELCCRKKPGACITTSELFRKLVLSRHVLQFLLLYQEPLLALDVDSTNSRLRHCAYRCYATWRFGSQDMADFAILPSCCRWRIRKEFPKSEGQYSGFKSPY
Type: cell-based
`Cn1nc2c(c1-c1ccc(F)cc1)CCN(C(=O)c1cccc(Cl)c1Cl)C2` [Example 326, (2,3-dichlorophenyl)(3-(4-fluorophenyl)-2-methyl-4,5-dihydro-2H-pyrazolo[3,4-c]pyridin-6(7H)-yl)methanone] was tested, and the “PBMC 1 μM (% control)” value was 92.0 % control.
For `COc1ccccc1-n1nnc2c1CCN(C(=O)c1cccc(C(F)(F)F)c1F)C2` [Example 124, (2-Fluoro-3-(trifluoromethyl)phenyl)(1-(2-methoxyphenyl)-6,7-dihydro-1H-[1,2,3]triazolo[4,5-c]pyridin-5(4H)-yl)methanone], the “PBMC 1 μM (% control)” value was 94.7 % control.
With `O=C(c1cccnc1C(F)(F)F)N1CCc2c(-c3ccccc3)n[nH]c2C1` [Example 322, (3-phenyl-4,5-dihydro-1H-pyrazolo[3,4-c]pyridin-6(7H)-yl)(2-(trifluoromethyl)pyridin-3-yl)methanone] the “PBMC 1 μM (% control)” value was 100.4 % control.
In the case of `CC1c2ncn(-c3ccc(F)cc3)c2CCN1C(=O)c1cccc(C(F)(F)F)c1Cl` (stereo not drawn) [Example 18, (2-Chloro-3-(trifluoromethyl)phenyl)(1-(4-fluorophenyl)-4-methyl-6,7-dihydro-1H-imidazo[4,5-c]pyridin-5(4H)-yl)methanone], the “PBMC 1 μM (% control)” value was 5.3 % control.
`C[C@@H]1c2nnn(-c3cnccn3)c2CCN1C(=O)c1cccc(C(F)(F)F)c1Cl` (single isomer, unassigned) [Example 74, (4R*)-5-{[2-Chloro-3-(trifluoromethyl)phenyl]carbonyl}-4-methyl-1-pyrazin-2-yl-4,5,6,7-tetrahydro-1H-[1,2,3]triazolo[4,5-c]pyridine] was tested, and the “PBMC 1 μM (% control)” value was 102.6 % control.
`O=C(c1cccc(C(F)(F)F)c1Cl)N1CCc2c(ncn2-c2cc(F)cc(F)c2)C1` [Example 7, (2-Chloro-3-(trifluoromethyl)phenyl)(1-(3,5-difluorophenyl)-6,7-dihydro-1H-imidazo[4,5-c]pyridin-5(4H)-yl)methanone] was tested, and the “PBMC 1 μM (% control)” value was 98.7 % control.

Same assay, conditions: compound 10 μM, LPS 30 ng/ml, Bz-ATP 0.5 mM
With `CC1Cc2c(nnn2-c2ncc(F)cn2)CN1C(=O)c1ccc(F)c(Cl)c1Cl` (stereo not drawn) [Example 213, 5-[(2,3-Dichloro-4-fluorophenyl)carbonyl]-1-(5-fluoropyrimidin-2-yl)-6-methyl-4,5,6,7-tetrahydro-1H-[1,2,3]triazolo[4,5-c]pyridine] the “PBMC 10 μM (% control)” value was 0.3 % control.
With `Cc1ccnc(-n2nnc3c2CCN(C(=O)c2cccc(Cl)c2Cl)C3C)c1` (stereo not drawn) [Example 237, (2,3-dichlorophenyl)(4-methyl-1-(4-methylpyridin-2-yl)-6,7-dihydro-1H-[1,2,3]triazolo[4,5-c]pyridin-5(4H)-yl)methanone] the “PBMC 10 μM (% control)” value was −5.1 % control.
In the case of `C[C@@H]1Cc2c(nnn2-c2ncccc2F)CN1C(=O)c1cccc(C(F)(F)F)c1Cl` (single isomer, unassigned) [Example 167, (6R*)-5-{[2-Chloro-3-(trifluoromethyl)phenyl]carbonyl}-1-(3-fluoropyridin-2-yl)-6-methyl-4,5,6,7-tetrahydro-1H-[1,2,3]triazolo[4,5-c]pyridine], the “PBMC 10 μM (% control)” value was 4.2 % control.
`C[C@@H]1c2ncn(-c3ccc(F)cn3)c2CCN1C(=O)c1cccc(C(F)(F)F)c1Cl` (single isomer, unassigned) [Example 40, (R*)-(2-chloro-3-(trifluoromethyl)phenyl)(1-(5-fluoropyridin-2-yl)-4-methyl-6,7-dihydro-1H-imidazo[4,5-c]pyridin-5(4H)-yl)methanone] was tested, and the “PBMC 10 μM (% control)” value was 36.5 % control.
In the case of `C[C@@H]1Cc2c(nnn2-c2ncc(F)cn2)CN1C(=O)c1ccc(F)c(Cl)c1Cl` (single isomer, unassigned) [Example 214, (6R*)-5-[(2,3-Dichloro-4-fluorophenyl)carbonyl]-1-(5-fluoropyrimidin-2-yl)-6-methyl-4,5,6,7-tetrahydro-1H-[1,2,3]triazolo[4,5-c]pyridine], the “PBMC 10 μM (% control)” value was 8.2 % control.
With `C[C@H]1Cc2c(nnn2-c2ncc(F)cn2)CN1C(=O)c1cccc(Cl)c1Cl` (single isomer, unassigned) [Example 205, (6S*)-5-[(2,3-Dichlorophenyl)carbonyl]-1-(5-fluoropyrimidin-2-yl)-6-methyl-4,5,6,7-tetrahydro-1H-[1,2,3]triazolo[4,5-c]pyridine] the “PBMC 10 μM (% control)” value was 17.1 % control.
`Cc1cccnc1-n1nnc2c1CCN(C(=O)c1cccc(C(F)(F)F)c1Cl)C2C` (stereo not drawn) [Example 259, (2-Chloro-3-(trifluoromethyl)phenyl)(4-methyl-1-(3-methylpyridin-2-yl)-6,7-dihydro-1H-[1,2,3]triazolo[4,5-c]pyridin-5(4H)-yl)methanone] was tested, and the “PBMC 10 μM (% control)” value was −3.5 % control.
With `C[C@@H]1c2nnn(-c3cc(F)ccn3)c2CCN1C(=O)c1cccc(C(F)(F)F)c1Cl` (single isomer, unassigned) [Example 148, (R*)-(2-Chloro-3-(trifluoromethyl)phenyl)(1-(4-fluoropyridin-2-yl)-4-methyl-6,7-dihydro-1H-[1,2,3]triazolo[4,5-c]pyridin-5(4H)-yl)methanone] the “PBMC 10 μM (% control)” value was −9.6 % control.
In the case of `O=C(c1cccc(C(F)(F)F)c1Cl)N1CCc2[nH]cnc2C1C(F)(F)F` (stereo not drawn) [Example 39, 5-{[2-Chloro-3-(trifluoromethyl)phenyl]carbonyl}-4-(trifluoromethyl)-4,5,6,7-tetrahydro-1H-imidazo[4,5-c]pyridine], the “PBMC 10 μM (% control)” value was 112.0 % control.
For `C[C@H]1c2ncn(-c3ncc(F)cn3)c2CCN1C(=O)c1cccc(C(F)(F)F)c1Cl` (single isomer, unassigned) [Example 194, (S*)-(2-Chloro-3-(trifluoromethyl)phenyl)(1-(5-fluoropyrimidin-2-yl)-4-methyl-6,7-dihydro-1H-imidazo[4,5-c]pyridin-5(4H)-yl)methanone], the “PBMC 10 μM (% control)” value was −12.8 % control.
With `C[C@H]1c2nnn(-c3ncc(F)cn3)c2CCN1C(=O)c1ccnc(C(F)(F)F)c1F` (single isomer, unassigned) [Example 229, (S*)-(3-fluoro-2-(trifluoromethyl)pyridin-4-yl)(1-(5-fluoropyrimidin-2-yl)-4-methyl-6,7-dihydro-1H-[1,2,3]triazolo[4,5-c]pyridin-5(4H)-yl)methanone] the “PBMC 10 μM (% control)” value was 116.4 % control.
For `Cc1c(C(=O)N2CCc3c(nnn3-c3ncccn3)[C@@H]2C)cccc1C(F)(F)F` (single isomer, unassigned) [Example 197, (S*)-(4-methyl-1-(pyrimidin-2-yl)-6,7-dihydro-1H-[1,2,3]triazolo[4,5-c]pyridin-5(4H)-yl)(2-methyl-3-(trifluoromethyl)phenyl)methanone], the “PBMC 10 μM (% control)” value was 2.1 % control.
For `COc1ccnc(-n2nnc3c2CCN(C(=O)c2cccc(C(F)(F)F)c2Cl)[C@H]3C)c1` (single isomer, unassigned) [Example 151, (R*)-(2-Chloro-3-(trifluoromethyl)phenyl)(1-(4-methoxypyridin-2-yl)-4-methyl-6,7-dihydro-1H-[1,2,3]triazolo[4,5-c]pyridin-5(4H)-yl)methanone], the “PBMC 10 μM (% control)” value was 19.5 % control.
For `C[C@@H]1c2nnn(-c3ccn[nH]3)c2C[C@H](C)N1C(=O)c1cccc(C(F)(F)F)c1Cl` [Example 310, (2-chloro-3-(trifluoromethyl)phenyl)((4R,6S)-4,6-dimethyl-1-(1H-pyrazol-5-yl)-6,7-dihydro-1H-[1,2,3]triazolo[4,5-c]pyridin-5(4H)-yl)methanone], the “PBMC 10 μM (% control)” value was 12.2 % control.
With `C[C@@H]1c2nnn(-c3cc[nH]n3)c2CCN1C(=O)c1cccc(C(F)(F)F)c1Cl` (single isomer, unassigned) [Example 133, (R*)-(2-Chloro-3-(trifluoromethyl)phenyl)(4-methyl-1-(1H-pyrazol-5-yl)-6,7-dihydro-1H-[1,2,3]triazolo[4,5-c]pyridin-5(4H)-yl)methanone] the “PBMC 10 μM (% control)” value was −0.2 % control.
In the case of `C[C@@H]1c2nnn(-c3ccn(C)n3)c2CCN1C(=O)c1cccc(C(F)(F)F)c1Cl` (single isomer, unassigned) [Example 169, (R*)-(2-Chloro-3-(trifluoromethyl)phenyl)(4-methyl-1-(1-methyl-1H-pyrazol-3-yl)-6,7-dihydro-1H-[1,2,3]triazolo[4,5-c]pyridin-5(4H)-yl)methanone], the “PBMC 10 μM (% control)” value was 95.0 % control.
`C[C@H]1c2nnn(-c3ncccn3)c2CCN1C(=O)c1cccc(C(F)(F)F)c1F` (single isomer, unassigned) [Example 270, (S*)-(2-fluoro-3-(trifluoromethyl)phenyl)(4-methyl-1-(pyrimidin-2-yl)-6,7-dihydro-1H-[1,2,3]triazolo[4,5-c]pyridin-5(4H)-yl)methanone] was tested, and the “PBMC 10 μM (% control)” value was 98.5 % control.
With `C[C@@H]1Cc2c(nnn2-c2ncc(F)cn2)CN1C(=O)c1cccc(Cl)c1Cl` (single isomer, unassigned) [Example 204, (6R*)-5-[(2,3-Dichlorophenyl)carbonyl]-1-(5-fluoropyrimidin-2-yl)-6-methyl-4,5,6,7-tetrahydro-1H-[1,2,3]triazolo[4,5-c]pyridine] the “PBMC 10 μM (% control)” value was 180.6 % control.
`Cc1cc(C)nc(-n2nnc3c2CCN(C(=O)c2cccc(C(F)(F)F)c2Cl)[C@H]3C)n1` (single isomer, unassigned) [Example 182, (S*)-(2-chloro-3-(trifluoromethyl)phenyl)(1-(4,6-dimethylpyrimidin-2-yl)-4-methyl-6,7-dihydro-1H-[1,2,3]triazolo[4,5-c]pyridin-5(4H)-yl)methanone] was tested, and the “PBMC 10 μM (% control)” value was 62.5 % control.
In the case of `Cc1ccnc(-n2nnc3c2CCN(C(=O)c2cccc(C(F)(F)F)c2Cl)[C@H]3C)c1` (single isomer, unassigned) [Example 186, (S*)-(2-chloro-3-(trifluoromethyl)phenyl)(4-methyl-1-(4-methylpyridin-2-yl)-6,7-dihydro-1H-[1,2,3]triazolo[4,5-c]pyridin-5(4H)-yl)methanone], the “PBMC 10 μM (% control)” value was −0.5 % control.
With `CCc1nc2c(n1-c1ccccc1)CCN(C(=O)c1cccc(C(F)(F)F)c1Cl)C2C` (stereo not drawn) [Example 184, (2-Chloro-3-(trifluoromethyl)phenyl)(2-ethyl-4-methyl-1-phenyl-6,7-dihydro-1H-imidazo[4,5-c]pyridin-5(4H)-yl)methanone] the “PBMC 10 μM (% control)” value was −0.7 % control.
